Results from patent US10149887B2, “Peptides and peptidomimetics in combination with t cell activating and/or checkpoint inhibiting agents for cancer treatment” (CanBas Co., Ltd., priority 2015, dated 2018).
Read-outs that look alike come from different tables or passages of the source. Square brackets hold non-standard residues; d marks the D form. Peptide text beside a SMILES is read from it. Phe(F5) = N[C@@H](Cc1c(F)c(F)c(F)c(F)c1F)C(=O)O; dPhe(F5) = N[C@H](Cc1c(F)c(F)c(F)c(F)c1F)C(=O)O; Cha = N[C@@H](CC1CCCCC1)C(=O)O; dCha = N[C@H](CC1CCCCC1)C(=O)O; Aun = NCCCCCCCCCCC(=O)O

Tests used:
Jurkat cells [1] = test: Side effect of peptide used alone: Jurkat cell cycle disturbance (flow cytometry); type: cell-based
Method: Cell-cycle analysis The cell cycle status of the cells treated with bleomycin or adriamcin were analyzed by flow cytometry as described by Kawabe (1997) Nature 385:454-458. In brief, two million cells were re-suspended and incubated in 200 μl Krishan's solution (0.1% Sodium citrate, 50 μg/ml PI, 20 μg/ml RNase A and 0.5% NP-40) for 1 hr at 4° C. and analyzed by a flow cytometry, FACScan™ (Beckton Dickinson, Mountain View, Calif.) with the program CELLQuest™ (Beckton Dickinson).
(§1) The “Appearance of side effect when used alone” indicates the peptide/peptidomimetic dose that produced Jurkat cell cycle disturbance, i.e., the appearance of significant amounts of SubG1 cells (dead cells) or cells in which the DNA content of each varies more than usual. […] The “G2 abrogating dose” indicates the peptide/peptidomimetic dose with 40 μg/ml bleomycine that produced detectable G2 checkpoint abrogation activity following treatment for 24 hours. The “Appearance of side effect when used with colchicine” indicates the peptide/peptidomimetic dose with 5 μg/ml colchicine that produced Jurkat cell cycle disturbance following treatment for 24 hours.

Jurkat cells [2] = test: M phase checkpoint abrogation / non specific toxicity, colchicine treated Jurkat cells; type: cell-based; conditions: dose with 5 μg/ml colchicine that produced Jurkat cell cycle disturbance, 24 hours
Method: Flow cytometry analysis of M phase checkpoint abrogation by the compounds was performed using human T cell leukemia Jurkat cell line treated with colchicine (5 μg/ml or 0.5 μg/ml) and various doses of peptide/peptidomimetics for 24 hr (FIG. 12). The DNA of the cells was stained and analyzed by flow cytometry as described above.
as §1
A comparison between G2 checkpoint abrogating activity and non specific toxicity (M checkpoint abrogation) by CB501 was performed. In brief, Jurkat cells were treated with 40 μg/ml bleomycin or 0.5 μg/ml colchicine for G2 checkpoint abrogating activity and non specific toxicity, respectively. The DNA amount in each of the treated cells was analyzed by flow cytometry, as previously described.

[3] = dose that produced Jurkat cell cycle disturbance, peptide alone

Row | Compound | Appearance of side effect when used alone (Jurkat cells [1]; [3]) [µM] | Appearance of side effect when used with Colchicine (Jurkat cells [2]) [µM] | Appearance of side effect when used alone (Jurkat cells [1]) [µM]
1 | N=C(N)NCCC[C@H](NC(=O)CNC(=O)[C@@H](N)Cc1ccc(O)cc1)C(=O)N[C@@H](CCCCN)C(=O)N[C@@H](CCCCN)C(=O)N[C@@H](CCCNC(=N)N)C(=O)N[C@@H](CCCNC(=N)N)C(=O)N[C@@H](CCC(N)=O)C(=O)N[C@@H](CCCNC(=N)N)C(=O)N[C@@H](CCCNC(=N)N)C(=O)N[C@@H](CCCNC(=N)N)C(=O)N[C@@H](CC1CCCCC1)C(=O)N[C@@H](Cc1c(F)c(F)c(F)c(F)c1F)C(=O)N[C@@H](CCCNC(=N)N)C(=O)N[C@@H](CO)C(=O)N1CCC[C@H]1C(=O)N[C@@H](CO)C(=O)N[C@@H](Cc1ccc(O)cc1)C(=O)O [CBP420, (1-Tyr)(1-Gly)(1-Arg)(1-Lys)(1-Lys)(1-Arg)(1-Arg)(1-Gln)(1-Arg)(1-Arg)(1-Arg)(1-Cha)(1-Phe-2,3,4,5,6-F)(1-Arg)(1-Ser)(1-Pro)(1-Ser)(1-Tyr)] | >50 | ≥50 | 
2 | N=C(N)NCCC[C@H](NC(=O)[C@H](CCCNC(=N)N)NC(=O)[C@@H](N)CCCNC(=N)N)C(=O)N[C@@H](CC1CCCCC1)C(=O)N[C@@H](Cc1c(F)c(F)c(F)c(F)c1F)C(=O)N[C@@H](CCCNC(=N)N)C(=O)N[C@@H](CO)C(=O)N1CCC[C@H]1C(=O)N[C@@H](CO)C(=O)N[C@@H](Cc1ccc(O)cc1)C(=O)N[C@@H](Cc1ccc(O)cc1)C(=O)O [CBP430, (1-Arg)(1-Arg)(1-Arg)(1-Cha)(1-Phe-2,3,4,5,6-F)(1-Arg)(1-Ser)(1-Pro)(1-Ser)(1-Tyr)(1-Tyr)] (H-RRR[Cha][Phe(F5)]RSPSYY-OH; N-terminus and C-terminus assumed) |  |  | >50
3 | N=C(N)NCCC[C@H](NC(=O)[C@H](CCCNC(=N)N)NC(=O)[C@H](CCCNC(=N)N)NC(=O)[C@H](CCC(N)=O)NC(=O)[C@H](CCCNC(=N)N)NC(=O)[C@@H](N)CCCNC(=N)N)C(=O)N[C@@H](CC1CCCCC1)C(=O)N[C@@H](Cc1c(F)c(F)c(F)c(F)c1F)C(=O)N[C@@H](CCCNC(=N)N)C(=O)N[C@@H](CO)C(=O)N1CCC[C@H]1C(=O)N[C@@H](CO)C(=O)N[C@@H](Cc1ccc(O)cc1)C(=O)N[C@@H](Cc1ccc(O)cc1)C(=O)O [CBP431, (1-Arg)(1-Arg)(1-Gln)(1-Arg)(1-Arg)(1-Arg)(1-Cha)(1-Phe-2,3,4,5,6-F)(1-Arg)(1-Ser)(1-Pro)(1-Ser)(1-Tyr)(1-Tyr)] (H-RRQRRR[Cha][Phe(F5)]RSPSYY-OH; N-terminus and C-terminus assumed) |  |  | >50
4 | N=C(N)NCCC[C@H](NC(=O)CNC(=O)[C@@H](N)Cc1ccc(O)cc1)C(=O)N[C@@H](CCCCN)C(=O)N[C@@H](CCCCN)C(=O)N[C@@H](CCCNC(=N)N)C(=O)N[C@@H](CCCNC(=N)N)C(=O)N[C@@H](CCC(N)=O)C(=O)N[C@@H](CCCNC(=N)N)C(=O)N[C@@H](CCCNC(=N)N)C(=O)N[C@@H](CCCNC(=N)N)C(=O)N[C@@H](CC1CCCCC1)C(=O)N[C@@H](Cc1c(F)c(F)c(F)c(F)c1F)C(=O)NCCCCCCCCCCC(=O)N[C@@H](Cc1ccc(O)cc1)C(=O)N[C@@H](Cc1ccc(O)cc1)C(=O)O [CBP440, (1-Tyr)(1-Gly)(1-Arg)(1-Lys)(1-Lys)(1-Arg)(1-Arg)(1-Gln)(1-Arg)(1-Arg)(1-Arg)(1-Cha)(1-Phe-2,3,4,5,6-F)(1-aminoundecanoic acid)(1-Tyr)(1-Tyr)] | >12.5 | >3.125 | 
5 | N=C(N)NCCC[C@@H](NC(=O)[C@@H](CCCCN)NC(=O)[C@@H](CCCCN)NC(=O)[C@@H](CCCNC(=N)N)NC(=O)[C@@H](CCCNC(=N)N)NC(=O)[C@@H](CCC(N)=O)NC(=O)[C@@H](CCCNC(=N)N)NC(=O)[C@@H](CCCNC(=N)N)NC(=O)[C@@H](CCCNC(=N)N)NC(=O)[C@@H](CC1CCCCC1)NC(=O)[C@@H](Cc1c(F)c(F)c(F)c(F)c1F)NC(=O)CCCCCCCCCCNC(=O)[C@H](Cc1ccc(O)cc1)NC(=O)[C@@H](N)Cc1ccc(O)cc1)C(=O)NCC(=O)N[C@H](Cc1ccc(O)cc1)C(=O)O [CBP460, (1-Tyr)(1-Tyr)(1-aminoundecanoic acid)(d-Phe-2,3,4,5,6-F)(d-Cha)(d-Arg)(d-Arg)(d-Arg)(d-Gln)(d-Arg)(d-Arg)(d-Lys)(d-Lys)(d-Arg)(1-Gly)(d-Tyr)] (H-YY[Aun][dPhe(F5)][dCha][dR][dR][dR][dQ][dR][dR][dK][dK][dR]G[dY]-OH; N-terminus and C-terminus assumed) | >3.125 | >3.125 | 
6 | N=C(N)NCCC[C@@H](NC(=O)[C@@H](CCCCN)NC(=O)[C@@H](CCCCN)NC(=O)[C@@H](CCCNC(=N)N)NC(=O)[C@@H](CCCNC(=N)N)NC(=O)[C@@H](CCC(N)=O)NC(=O)[C@@H](CCCNC(=N)N)NC(=O)[C@@H](CCCNC(=N)N)NC(=O)[C@@H](CCCNC(=N)N)NC(=O)[C@@H](CC1CCCCC1)NC(=O)[C@@H](Cc1c(F)c(F)c(F)c(F)c1F)NC(=O)CCCCCCCCCCNC(=O)[C@@H](N)Cc1ccc(O)cc1)C(=O)NCC(=O)N[C@H](Cc1ccc(O)cc1)C(=O)O [CBP461, (1-Tyr)(1-aminoundecanoic acid)(d-Phe-2,3,4,5,6-F)(d-Cha)(d-Arg)(d-Arg)(d-Arg)(d-Gln)(d-Arg)(d-Arg)(d-Lys)(d-Lys)(d-Arg)(1-Gly)(d-Tyr)] (H-Y[Aun][dPhe(F5)][dCha][dR][dR][dR][dQ][dR][dR][dK][dK][dR]G[dY]-OH; N-terminus and C-terminus assumed) | >6.25 | >6.25 | 
7 | N[C@@H](Cc1ccc(O)cc1)C(=O)NCCCCCCCCCCC(=O)N[C@H](Cc1c(F)c(F)c(F)c(F)c1F)C(=O)N[C@H](CC1CCCCC1)C(=O)O [CBP462, (1-Tyr)(1-aminoundecanoic acid)(d-Phe-2,3,4,5,6-F)(d-Cha)] (H-Y[Aun][dPhe(F5)][dCha]-OH; N-terminus and C-terminus assumed) |  |  | >50
8 | NCCCCCCCCCCC(=O)N[C@H](Cc1c(F)c(F)c(F)c(F)c1F)C(=O)N[C@H](CC1CCCCC1)C(=O)O [CBP464, (1-aminoundecanoic acid)(d-Phe-2,3,4,5,6-F)(d-Cha)] (H-[Aun]-[dPhe(F5)]-[dCha]-OH; N-terminus and C-terminus assumed) |  |  | >50
9 | N[C@H](Cc1c(F)c(F)c(F)c(F)c1F)C(=O)N[C@H](CC1CCCCC1)C(=O)O [CBP470, (d-Phe-2,3,4,5,6-F)(d-Cha)] (H-[dPhe(F5)]-[dCha]-OH; N-terminus and C-terminus assumed) |  |  | >50
10 | N=C(N)NCCC[C@@H](NC(=O)[C@@H](CCCNC(=N)N)NC(=O)[C@@H](CCC(N)=O)NC(=O)[C@@H](CCCNC(=N)N)NC(=O)[C@@H](CCCNC(=N)N)NC(=O)[C@@H](CCCNC(=N)N)NC(=O)[C@@H](CC1CCCCC1)NC(=O)[C@@H](Cc1c(F)c(F)c(F)c(F)c1F)NC(=O)[C@@H](CO)NC(=O)[C@@H](Cc1c[nH]c2ccccc12)NC(=O)[C@@H](CO)NC(=O)[C@@H](CO)NC(=O)[C@H](N)Cc1ccc(O)cc1)C(=O)O [CBP481, (d-Tyr)(d-Ser)(d-Ser)(d-Trp)(d-Ser)(d-Phe-2,3,4,5,6-F)(d-Cha)(d-Arg)(d-Arg)(d-Arg)(d-Gln)(d-Arg)(d-Arg)] (H-[dY][dS][dS][dW][dS][dPhe(F5)][dCha][dR][dR][dR][dQ][dR][dR]-OH; N-terminus and C-terminus assumed) |  |  | >50
